How the values were obtained:
mouse SAP = biological target: T1, mouse SAP (Mus musculus, UniProt P12246); test: Endogenous mouse SAP in amyloid deposits of mice with AA amyloidosis; type: in vivo
T1 construct: all the endogenous mouse SAP in the deposits; from tissue; host or cells: mice in vivo: amyloidotic organs, or plasma of normal wild type mice
T1 sequence (P12246 21-224): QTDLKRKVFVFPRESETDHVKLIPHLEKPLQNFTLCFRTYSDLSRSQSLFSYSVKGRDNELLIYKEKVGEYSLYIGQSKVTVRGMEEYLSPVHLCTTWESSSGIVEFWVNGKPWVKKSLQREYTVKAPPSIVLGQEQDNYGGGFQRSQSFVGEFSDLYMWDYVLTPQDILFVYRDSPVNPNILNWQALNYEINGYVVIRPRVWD
Protocol: Clearance from the amyloid deposits, catabolism and excretion of the human SAP tracer were monitored globally by whole body counting of the mice (left), and the total amount of mouse SAP in the amyloidotic organs was determined after killing the animals on day 5 (right). […] Immediately after the 15 minute bleed, two groups, one that had received human SAP and the other mouse SAP, received a single intraperitoneal injection of 5 mg of (R)-1-[6-(R)-2-Carboxy-pyrrolidin-1-yl]-6-oxo-hexanoyl]pyrrolidine-2-carboxylic acid (desapin). Tracer remaining in the circulation is expressed as the mean (SD) percentage of the amount at the 15 minute time point for each group. […] In one of each of the pairs of groups receiving mouse or human SAP respectively, the tracer had been mixed with (R)-1-[6-(R)-2-Carboxy-pyrrolidin-1-yl]-6-oxo-hexanoyl]pyrrolidine-2-carboxylic acid (desapin) and incubated in vitro before injection into the animals. Tracer remaining in the circulation is expressed as mean (SD) total radioactivity per gram of blood in each group. Bottom panel: effect of administration of (R)-1-[6-(R)-2-Carboxy-pyrrolidin-1-yl]-6-oxo-hexanoyl]pyrrolidine-2-carboxylic acid (desapin) in the drinking water at the concentrations shown, on circulating human SAP values in human SAP transgenic mice. Mice of approximately 20 g body weight consume about 3 ml water per day. […]

123I-SAP = 123I-SAP (Homo sapiens, UniProt P02743); test: Quantitative whole body 123I-SAP scintigraphy in patients during drug infusion; type: in vivo
123I-SAP, sequence (P02743 20-223): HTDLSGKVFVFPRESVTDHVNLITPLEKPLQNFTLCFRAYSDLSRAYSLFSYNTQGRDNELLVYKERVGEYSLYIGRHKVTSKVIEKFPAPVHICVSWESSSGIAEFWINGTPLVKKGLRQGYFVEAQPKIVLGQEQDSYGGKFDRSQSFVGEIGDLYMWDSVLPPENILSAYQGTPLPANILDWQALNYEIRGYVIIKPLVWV
From the text: This patient, with a modest load of AL amyloid in the spleen and kidneys, had notable blood pool background of tracer in the heart and circulation before administration of the drug.
This patient, with modest load of AL amyloid in the spleen and kidneys, had notable blood pool background of tracer in the heart and circulation before administration of the drug.
Direct evidence for depletion of SAP from amyloid in the organs and for the mechanism of action of (R)-1-[6-(R)-2-Carboxy-pyrrolidin-1-yl]-6-oxo-hexanoyl]pyrrolidine-2-carboxylic acid was obtained by quantitative whole body scintigraphy using ^123I-SAP as a tracer. Each patient received a standard dose of ^123I-SAP 24 h before the (R)-1-[6-(R)-2-Carboxy-pyrrolidin-1-yl]-6-oxo-hexanoyl]pyrrolidine-2-carboxylic acid infusion started and was scanned immediately before treatment to provide a baseline image and values for localisation of tracer to the amyloid deposits. They were then scanned at intervals thereafter, up to the end of the 48 h infusion. (R)-1-[6-(R)-2-Carboxy-pyrrolidin-1-yl]-6-oxo-hexanoyl]pyrrolidine-2-carboxylic acid caused dramatic clearance of tracer from the plasma, exactly paralleling both in the scintigraphic images and in counting of blood samples, the SAP depletion monitored by immunoassay of the serum. […] At the same time there was a marked decrease in the retention of tracer in amyloid deposits elsewhere, exemplified by the spleen and kidneys, in contrast to the usual situation in control untreated amyloidosis patients (Table 2; FIG. 6).
All patients had systemic AL amyloidosis and received a standard intravenous tracer dose of ^123I-SAP at time zero. After whole body quantitative scintigraphic imaging at 24 h, uptake in liver and spleen were taken as 100% for each individual. Intravenous infusion of the drug (R)-1-[6-(R)-2-Carboxy-pyrrolidin-1-yl]-6-oxo-hexanoyl]pyrrolidine-2-carboxylic acid was then started and scintigraphy with organ counting was repeated at 48 h. The controls received no treatment. Significance of differences between the two groups was sought by t-test.

[1] = 24 h after starting infusion, second patient
[2] = 48 h after starting infusion, second patient
[3] = 48 h after tracer injection (drug infusion started at 24 h), 24 h uptake = 100%, 7 patients

**Q.** Which results are given for O=C(O)[C@H]1CCCN1C(=O)CCCCC(=O)N1CCC[C@@H]1C(=O)O [(R)-1-[6-(R)-2-Carboxy-pyrrolidin-1-yl]-6-oxo-hexanoyl]pyrrolidine-2-carboxylic acid]?
**A.** Removal of endogenous mouse SAP from amyloid deposits (mouse SAP; 15 mg/kg/day, continuous infusion): removed all the mouse SAP; Dose required to dissociate any endogenous mouse SAP significantly (mouse SAP; continuous infusion for 5 days via osmotic pump): 1.5 mg/kg/day; Blood pool background of 123I-SAP tracer (123I-SAP; 6 h after starting infusion, first patient): completely absent; Kidney counts, of time 0 (123I-SAP; [1]): 77%; Spleen counts, of time 0 (123I-SAP; [1]): 85%; Blood pool background of 123I-SAP tracer (123I-SAP; 24 h and 48 h after starting infusion, second patient): completely absent; Kidney counts, of time 0 (123I-SAP; [2]): 50%; Spleen counts, of time 0 (123I-SAP; [2]): 54%; 123I-SAP retention [mean (SD)%], Liver (123I-SAP; [3]): 125 (20) %; 123I-SAP retention [mean (SD)%], Spleen (123I-SAP; [3]): 54 (18) %; Blood pool signal of 123I-SAP tracer (123I-SAP; by 6 h after starting treatment and persisting thereafter): virtually disappeared

— patent publication US8173694B2, “Therapeutic agent” (Pentraxin Therapeutics Limited, priority 2001, dated 2012)
